Reference: US20090162421A1, “DRUGS AS WELL AS THEIR PRODUCTION AND USE IN THE TREATMENT OF PAIN-ASSOCIATED NEUROPATHIES” (PAZ Arzneimittel-Entwicklungsgesellschaft mbH, priority 2007, published 2009)

Columns and labels:
[1] = test system: chronic constriction injury model of peripheral neuropathic pain; experiment: Chronic Constriction Injury model (CCI model), treatment day 10 to 21 postoperatively (Example 1); assay type: in vivo; settings: rats
From the text: (§1) The Chronic Constriction Injury model (CCI model) [Bennet G J, Xie Y K: A peripheral mononeuropathy in rat that produces disorders of pain sensation like those seen in man. Pain 1988, 33:87-107] and the Spared Nerve Injury model (SNI model) [Decosterd I, Woolf C J: Spared Nerve injury: an animal model of persistent peripheral neuropathic pain. Pain 2000, 87:149-158] were used as animal models that show essential elements of the clinical pain syndromes in the presence of neuropathies. In both models, the animals sustain defined nerve damage by surgical means. The pain behavior of the animals can be used to quantitatively measure the efficacy of substances in pain-associated neuropathies. The investigations were carried out on rats according to the published models. […] The same is not true of most other species of laboratory animals.
(§2) In a first series of experiments, the animals sustained a nerve lesion by surgical means according to the SNI model and according to the CCI model. From day 10 to day 21 postoperatively, groups of 12 animals each received intraperitoneal administrations of the test substances twice daily. In tests according to the SNI model, in each application, 2.5, 4.5 or 9 mg tarenflurbil (referred to as RF2.5, RF4.5, and RF9), 4.5 mg S-flurbiprofen (SF4.5), pure vehicle (vehicle—as control) or 25 mg gabapentin (Gaba25—as reference substance), each per kg of body weight, were administered. The behavioral parameters that are typical of pain-associated neuropathies were measured, namely mechanical allodynia using Frey's aestesiometer, cold allodynia using the acetone test, and cold hyperalgesia using the cold plate at 2° C. In tests according to the CCI model, 4.5 or 9 mg/kg body weight of tarenflurbil (RF4.5 and RF9), 9 mg/kg body weight S-flurbiprofen (SF9) or vehicle (vehicle) were administered per group. As before, mechanical/static allodynia, cold allodynia and cold hyperalgesia were measured using Frey's hair test, the acetone test, and the cold plate at 2° C., respectively.

[2] = test system: spared nerve injury model of peripheral neuropathic pain; experiment: Spared Nerve Injury model (SNI model), treatment day 10 to 21 postoperatively (Example 1); assay type: in vivo, rats; settings: for reduction of allodynia: day 10 to 21 postoperatively
From the text: as §1, §2

[3] = parameters: species or system rats; settings: rat, in vivo, ip, 4.5 mg/kg
[4] = test system: rats that had not sustained damage; experiment: Single dose in rats that had not sustained damage (Example 3); assay type: in vivo; settings: undamaged rats, single i.p. dose of 9 mg/kg, up to 6 hours after application
Experimental: For qualification of the series' of experiments mentioned above, a single dose of 9 mg/kg body weight tarenflurbil (RF9) or vehicle (vehicle) was applied intraperitoneally in another series of experiments on rats that had not sustained damage and the mechanical allodynia and the heat sensitivity were measured for up to 6 hours after the application using Frey's aesthesiometer and the Hargreaves model, respectively. […] This means that the effects measured for tarenflurbil in Examples 1 and 2 are exclusively related to the effect in pain-associated neuropathies.

[5] = rats; cited from earlier work
[6] = test system: spared nerve injury model of peripheral neuropathic pain; experiment: SNI model, treatment from the first postoperative day for two weeks (Example 2); assay type: in vivo, rats
Experimental: In another series of experiments, animals having sustained nerve damage according to the SNI model were treated twice daily with intraperitoneal doses of 9 mg/kg body weight tarenflurbil or vehicle from the first postoperative day and for a period of two weeks. Both the mechanical dynamic allodynia (on the ipsilateral and on the contralateral side) and the cold allodynia (ipsilateral only) were measured by means of Frey's aesthesiometer and the cold plate at 10° C., respectively.

[7] = humans; cited from earlier work
[8] = SNI model, rats, 4.5 mg/kg twice daily i.p.
[9] = summary statement for the pharmacological models

SMILES	reduction of allodynia ([1]; 9 mg/kg twice daily i.p.)	reduction of allodynia [2, 8]	effect in models of pain-associated neuropathies [2, 9]	gastrointestinal bleeding [3]	reduction of allodynia ([1]; 4.5 mg/kg twice daily i.p.)	mechanical allodynia vs vehicle ([4]; Frey's aesthesiometer)	heat sensitivity vs vehicle ([4]; Hargreaves model)	reduction of allodynia ([2]; SNI model, rats, 9 mg/kg twice daily i.p.)	efficacy relative to reference substance gabapentin ([2]; if dosed sufficiently, vs 25 mg/kg body weight gabapentin)	effect in models of pain-associated neuropathies (dose dependence) [2, 9]	inversion of tarenflurbil to S-flurbiprofen [5]	mechanical allodynia, contralateral side, vs vehicle ([6]; 9 mg/kg twice daily i.p. from first postoperative day for two weeks)	mechanical allodynia, ipsilateral side, vs vehicle ([6]; 9 mg/kg twice daily i.p. from first postoperative day, entire treatment period of two weeks, Frey's aesthesiometer)	cold allodynia, ipsilateral side, vs vehicle ([6]; 9 mg/kg twice daily i.p. from first postoperative day, entire treatment period of two weeks, cold plate at 10° C.)	time until pain-relieving effect falls to pain intensity of the vehicle group ([6]; after completion of two weeks of 9 mg/kg twice daily i.p.)	inversion of the R-form to the S-form under in vivo conditions [7]	effect on allodynia compared with tarenflurbil ([2]; SNI model, rats, 25 mg/kg twice daily i.p., positive control)
C[C@H](C(=O)O)c1ccc(-c2ccccc2)c(F)c1 [S-flurbiprofen, reference compound]	no significant effect	no significant effect	does not show a significant effect	gastrointestinal bleeding in some animals													
C[C@@H](C(=O)O)c1ccc(-c2ccccc2)c(F)c1 [tarenflurbil]	significant reduction	significant reduction			significant reduction	no significant differences	no significant differences	significant reduction	in the range of the efficacy of 25 mg/kg body weight gabapentin	dose-dependent effect	basically do not invert	no difference	significantly different effect from vehicle	significantly different effect from vehicle	eight days after the end of treatment	no or no more than extremely minor inversion	
NCC1(CC(=O)O)CCCCC1 [Gabapentin, gabapentin, reference compound]																	no significant difference from tarenflurbil
